Earlier results, collected in patent publication US20220347065A1, “ANTIPERSPIRANT EMULSION” (Conopco, Inc., d/b/a UNILEVER, priority 2019, published 2022).

System: Staphylococcus epidermidis
Conditions: 80% or greater reduction in growth, 16 to 24 hours at 37° C.

| MIC | Compound |
| --- | --- |
| greater than 1 mg·ml^−1 | CCO [ethanol] |
| ca. 25 μg·ml^−1 | CC(C)=CCCC(C)=CCCC(C)=CCO [farnesol, 3,7,11-trimethyldodeca-2,6,10-trienol] |

| Compound | MIC |
| --- | --- |
| Oc1cc(Cl)ccc1Oc1ccc(Cl)cc1Cl [triclosan, 2′,4,4′-trichloro,2-hydroxy-diphenyl ether] | 0.01 to 10 µg/mL |
